Results taken from patent US4248865A, “Novel aminoglycoside derivatives” (Shionogi & Co., Ltd., priority 1978, dated 1981).
Converted amounts (≈) assume the structure as drawn.

Legend:
[1] = test system: Pseudomonas aeruginosa PP-6; experiment: MIC by agar dilution method, Pseudomonas aeruginosa PP-6; conditions: PP6, read-out: Minimum Inhibitory Concentration (MIC)
Protocol: (§1) MIC was determined by the following agar dilution method.
(§2) One loopful of a strain of bacteria to be tested on agar slant was inoculated into a medium for growth of inoculum (Trypto Soy Broth; Eiken Chemical Co.) and incubated at 37° C. overnight.
(§3) A sample solution of aminoglycoside derivative was subjected to serial two-fold dilutions with sterile water. This diluted sample solutions were distributed to the Modified Mueller Hinton Agar medium (Nissui-seiyaku Co.), mixed gently and allowed to solidify.
(§4) One loopful of the bacterial suspension prepared in (1) was placed on the surface of the medium prepared in (2) containing the aminoglycoside derivative in various concentrations at 10^6 CFU/ml inoculum size.

[2] = test system: Klebsiella pneumoniae K1-168; experiment: MIC by agar dilution method, Klebsiella pneumoniae K1-168; conditions: K1168, read-out: Minimum Inhibitory Concentration (MIC)
Protocol: as §1, §2, §3, §4

[3] = test system: Escherichia coli W-677/JR 762; experiment: MIC by agar dilution method, Escherichia coli W-677/JR 762; conditions: W677/JR762, read-out: Minimum Inhibitory Concentration (MIC)
Protocol: as §1, §2, §3, §4

| SMILES | MIC [1] | MIC [2] | MIC [3] |
| --- | --- | --- | --- |
| NC[C@H]1O[C@H](O[C@H]2[C@H](O)[C@@H](O[C@H]3O[C@H](CO)[C@@H](O)[C@H](N)[C@H]3O)[C@H](N)C[C@@H]2N)[C@H](N)C[C@@H]1O [TOB, tobramycin, reference compound] | > 100 µg/mL | 100 µg/mL (≈ 214 µM) | 50 µg/mL (≈ 107 µM) |
| NC[C@H]1O[C@H](O[C@H]2[C@H](O)[C@@H](O[C@H]3O[C@H](CO)[C@@H](O)[C@H](N)[C@H]3O)[C@H](NC3=NCC[C@@H]3O)C[C@@H]2N)[C@H](N)C[C@@H]1O [[A], 1N-[(S)(-)-3-hydroxy-1-pyrrolin-2-yl]tobramycin] | 3.1 µg/mL (≈ 5.63 µM) | 3.1 µg/mL (≈ 5.63 µM) | 12.5 µg/mL (≈ 22.7 µM) |
| NC[C@H]1O[C@H](O[C@H]2[C@H](O)[C@@H](O[C@H]3O[C@H](CO)[C@@H](O)[C@H](N)[C@H]3O)[C@H](NC3=NCCC[C@@H]3O)C[C@@H]2N)[C@H](N)C[C@@H]1O [[B], 1N-[(S)(-)-3-hydroxy-3,4,5,6-tetrahydropyridin-2-yl]tobramycin] | 6.2 µg/mL (≈ 11 µM) | 3.1 µg/mL (≈ 5.49 µM) | 12.5 µg/mL (≈ 22.1 µM) |
